In ChEMBL document CHEMBL3044913, “Synthesis, in vitro cytotoxicity, and antibacterial studies of new asymmetric bis-1,2,4-triazoles” (Med Chem Res, 2013):
Converted amounts (≈) assume the structure as drawn.

Key:
Staphylococcus aureus [1] = assay: Antibacterial activity against Staphylococcus aureus ATCC 25923 assessed as diameter of growth inhibition zone at 100 ug/ml after 24 hr by cup-plate method; format: functional; conditions: ATCC 25923, 24 h, read-out: DIZ
Escherichia coli [2] = assay: Antibacterial activity against Escherichia coli ATCC 25922 assessed as growth inhibition after 24 hr by two-fold serial dilution method; format: functional; conditions: ATCC 25922, 24 h
Bacillus subtilis [3] = assay: Antibacterial activity against Bacillus subtilis ATCC 6633 assessed as diameter of growth inhibition zone at 100 ug/ml after 24 hr by cup plate method; format: functional; conditions: ATCC 6633, 24 h, read-out: DIZ
Pseudomonas aeruginosa [4] = assay: Antibacterial activity against Pseudomonas aeruginosa ATCC 27853 assessed as diameter of growth inhibition zone at 100 ug/ml after 24 hr by cup-plate method; format: functional; conditions: ATCC 27853, 24 h, read-out: DIZ
Bacillus subtilis [5] = assay: Antibacterial activity against Bacillus subtilis ATCC 6633 assessed as growth inhibition after 24 hr by two-fold serial dilution method; format: functional; conditions: ATCC 6633, 24 h
Pseudomonas aeruginosa [6] = assay: Antibacterial activity against Pseudomonas aeruginosa ATCC 27853 assessed as growth inhibition after 24 hr by two-fold serial dilution method; format: functional; conditions: ATCC 27853, 24 h
Staphylococcus aureus [7] = assay: Antibacterial activity against Staphylococcus aureus ATCC 25923 assessed as growth inhibition after 24 hr by two-fold serial dilution method; format: functional; conditions: ATCC 25923, 24 h
Escherichia coli [8] = assay: Antibacterial activity against Escherichia coli ATCC 25922 assessed as diameter of growth inhibition zone at 100 ug/ml after 24 hr by cup-plate method; format: functional; conditions: ATCC 25922, 24 h, read-out: DIZ
[9] = test system: Radical scavenging activity; assay: Antioxidant activity assessed as DPPH radical scavenging activity at 40 ug/ml after 30 min; format: functional
HT-29 = assay: Cytotoxicity against Homo sapiens (human) HT-29 cells assessed as inhibition of cell growth after 48 hr by MTT assay; format: functional, cell-based; conditions: HT-29, 48 h
[10] = Cytotoxicity against Homo sapiens (human) MDA231 cells assessed as inhibition of cell growth after 48 hr by MTT assay; format: functional, cell-based; conditions: MDA-MB-231, 48 h

SMILES	zone of inhibition at 100 µg/mL (Staphylococcus aureus [1])	MIC (Escherichia coli [2])	zone of inhibition at 100 µg/mL (Bacillus subtilis [3])	zone of inhibition at 100 µg/mL (Pseudomonas aeruginosa [4])	MIC (Bacillus subtilis [5])	MIC (Pseudomonas aeruginosa [6])	MIC (Staphylococcus aureus [7])	zone of inhibition at 100 µg/mL (Escherichia coli [8])	Activity [9]	IC50 (HT-29)	IC50 [10]
CC(C)n1c(S)nnc1CSc1nnc(-c2ccccc2)n1-c1ccccc1	5 mm	100 µg/mL (≈ 245 µM)	5 mm	5 mm	100 µg/mL (≈ 245 µM)	100 µg/mL (≈ 245 µM)	100 µg/mL (≈ 245 µM)	5 mm	42%	–	–
Sc1nnc(CSc2nnc(-c3ccccc3)n2-c2ccccc2)n1-c1ccccc1	16 mm	25 µg/mL (≈ 56.5 µM)	16 mm	16 mm	12.5 µg/mL (≈ 28.2 µM)	50 µg/mL (≈ 113 µM)	12.5 µg/mL (≈ 28.2 µM)	16 mm	85%	5.49 µM	8.57 µM
O=c1[nH]cc(F)c(=O)[nH]1 [FLUOROURACIL]	–	–	–	–	–	–	–	–	–	3.24 µM	2.72 µM
Sc1nnc(Sc2nnc(-c3ccccc3)n2-c2ccccc2)n1-c1ccc(Cl)cc1	16 mm	12.5 µg/mL (≈ 27 µM)	16 mm	16 mm	25 µg/mL (≈ 54 µM)	25 µg/mL (≈ 54 µM)	12.5 µg/mL (≈ 27 µM)	16 mm	64%	38.4 µM	49.7 µM
CCOc1ccc(-n2c(S)nnc2CSc2nnc(-c3ccccc3)n2-c2ccccc2)cc1	5 mm	100 µg/mL (≈ 205 µM)	5 mm	5 mm	100 µg/mL (≈ 205 µM)	100 µg/mL (≈ 205 µM)	100 µg/mL (≈ 205 µM)	5 mm	34%	–	–
COc1ccc(-n2c(S)nnc2CSc2nnc(-c3ccccc3)n2-c2ccccc2)cc1	21 mm	50 µg/mL (≈ 106 µM)	21 mm	21 mm	50 µg/mL (≈ 106 µM)	100 µg/mL (≈ 212 µM)	25 µg/mL (≈ 52.9 µM)	21 mm	63%	27.7 µM	29.2 µM
Sc1nnc(Sc2nnc(-c3ccccc3)n2-c2ccccc2)n1-c1ccccc1	5 mm	100 µg/mL (≈ 233 µM)	5 mm	5 mm	100 µg/mL (≈ 233 µM)	100 µg/mL (≈ 233 µM)	100 µg/mL (≈ 233 µM)	5 mm	63%	28.3 µM	34.6 µM
O=C1O[C@H]([C@@H](O)CO)C(O)=C1O	–	–	–	–	–	–	–	–	94%	–	–
Fc1ccc(-n2c(S)nnc2Sc2nnc(-c3ccccc3)n2-c2ccccc2)cc1	16 mm	50 µg/mL (≈ 112 µM)	16 mm	16 mm	25 µg/mL (≈ 56 µM)	50 µg/mL (≈ 112 µM)	25 µg/mL (≈ 56 µM)	16 mm	60%	32.8 µM	29.7 µM
COc1ccc(-n2c(S)nnc2Sc2nnc(-c3ccccc3)n2-c2ccccc2)cc1	5 mm	100 µg/mL (≈ 218 µM)	5 mm	5 mm	100 µg/mL (≈ 218 µM)	100 µg/mL (≈ 218 µM)	100 µg/mL (≈ 218 µM)	5 mm	28%	–	–
CC1(C)S[C@@H]2[C@H](NC(=O)[C@H](N)c3ccccc3)C(=O)N2[C@H]1C(=O)O [AMPICILLIN]	28 mm	< 6.25 µg/mL	28 mm	28 mm	< 6.25 µg/mL	< 6.25 µg/mL	< 6.25 µg/mL	28 mm	–	–	–
Sc1nnc(CSc2nnc(-c3ccccc3)n2-c2ccccc2)n1-c1ccc(Cl)cc1	16 mm	50 µg/mL (≈ 105 µM)	16 mm	16 mm	25 µg/mL (≈ 52.4 µM)	100 µg/mL (≈ 210 µM)	50 µg/mL (≈ 105 µM)	16 mm	65%	36.6 µM	50.3 µM
Fc1ccc(-n2c(S)nnc2CSc2nnc(-c3ccccc3)n2-c2ccccc2)cc1	21 mm	25 µg/mL (≈ 54.3 µM)	21 mm	21 mm	12.5 µg/mL (≈ 27.1 µM)	12.5 µg/mL (≈ 27.1 µM)	25 µg/mL (≈ 54.3 µM)	21 mm	72%	16.7 µM	26.8 µM
CC(C)n1c(S)nnc1Sc1nnc(-c2ccccc2)n1-c1ccccc1	5 mm	100 µg/mL (≈ 253 µM)	5 mm	5 mm	100 µg/mL (≈ 253 µM)	100 µg/mL (≈ 253 µM)	100 µg/mL (≈ 253 µM)	5 mm	39%	–	–
CCOc1ccc(-n2c(S)nnc2Sc2nnc(-c3ccccc3)n2-c2ccccc2)cc1	5 mm	100 µg/mL (≈ 212 µM)	5 mm	5 mm	100 µg/mL (≈ 212 µM)	100 µg/mL (≈ 212 µM)	100 µg/mL (≈ 212 µM)	5 mm	59%	46.8 µM	43.9 µM
